PubChem BioAssay (NCI)
Values joined by “and” are separate entries in the source; they are usually repeats but may differ in a detail not shown here. Equal values may be shown once.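 Values below derive from 48-hour exposures of cells grown in 96-well plates, with endpoints linearly interpolated between the two concentrations bracketing the appropriate inhibition level. GI50 = concentration required for 50% inhibition of growth. TGI denotes the concentration required for complete inhibition of growth.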

Experiments:
Assay in all cases: growth of human tumour cells (NCI), 48 h
SNB-75 CNS = test system: SNB-75 CNS
OVCAR-5 ovarian = test system: OVCAR-5 ovarian
SF-268 CNS = test system: SF-268 CNS
KM12 colon = test system: KM12 colon
MOLT-4 leukemia = test system: MOLT-4 leukemia
SK-MEL-28 melanoma = test system: SK-MEL-28 melanoma
HOP-62 NSCLC = test system: HOP-62 NSCLC
UO-31 renal = test system: UO-31 renal
CAKI-1 renal = test system: CAKI-1 renal
MDA-MB-435 = test system: MDA-MB-435

Row | SMILES | TGI (SNB-75 CNS) [µM] | TGI (OVCAR-5 ovarian) | TGI (SF-268 CNS) | TGI (KM12 colon) [µM] | TGI (MOLT-4 leukemia) | TGI (SK-MEL-28 melanoma) [µM] | TGI (HOP-62 NSCLC) | TGI (UO-31 renal) | TGI (CAKI-1 renal) [µM] | TGI (MDA-MB-435) [µM] | GI50 (OVCAR-5 ovarian) [µM] | GI50 (SF-268 CNS) [µM] | GI50 (KM12 colon) [µM] | GI50 (HOP-62 NSCLC) [µM] | GI50 (UO-31 renal) [µM] | GI50 (CAKI-1 renal) [µM] | GI50 (MOLT-4 leukemia) [µM] | GI50 (SK-MEL-28 melanoma) [µM]
1 | CCOC(=O)NC(=O)c1cn(CCN2CCN(c3ncnc4nc[nH]c34)CC2)c(=O)[nH]c1=O | > 100 | > 100 µM | > 100 µM | > 100 | > 100 µM | > 100 | > 100 µM | > 100 µM | – | – | – | – | – | – | – | – | – | –
2 | [N-]=[N+]=NC(CI)c1cn([C@H]2C[C@H](O)[C@@H](CO)O2)c(=O)[nH]c1=O (stereo partly specified) | > 100 | > 100 µM | – | > 100 | > 100 µM | > 100 | > 100 µM | > 100 µM | > 100 | – | – | – | – | – | – | – | – | –
3 | Cc1ccccc1NC(=O)C(=O)CC(=O)c1c(C)n([O-])c2ccccc2[n+]1=O | > 100 | > 100 µM | > 100 µM | > 100 | – | > 100 | > 100 µM | > 100 µM | > 100 | – | – | – | – | – | – | – | – | –
4 | C/C=C(/COC(C)=O)C(=O)OC1C=C(C=O)C(C)(C)C=C1C (stereo unspecified) | > 100 | > 100 µM | > 100 µM | > 100 | – | > 100 | – | > 100 µM | > 100 | > 100 | – | – | – | – | – | – | – | –
5 | C=C1c2[nH]c3c([N+](=O)[O-])c(OC)ccc3c2CCN1C(C)=O | 42.5 | > 100 µM | > 100 µM | > 100 | > 100 µM | > 100 | > 100 µM | > 100 µM | > 100 | – | – | – | – | – | – | – | – | –
6 | Cc1[nH]c2ccccc2c1C1Cc2ccccc2N1C(=O)/C=C/C(=O)O (stereo unspecified) | > 100 | > 100 µM | > 100 µM | > 100 | > 100 µM | – | > 100 µM | > 100 µM | > 100 | – | – | – | – | – | – | – | – | –
7 | CN1c2ccccc2N(C)C23N(C)c4ccccc4N(C)C12N(C)c1ccccc1N3C (stereo unspecified) | > 100 | > 100 µM | > 100 µM | > 100 | > 100 µM | > 100 | > 100 µM | > 100 µM | > 100 | – | – | – | – | – | – | – | – | –
8 | COc1ccc(/C=C\c2cc(OC)c(OC)c(OC)c2)cc1OC | 40.4 | 40.4 µM and > 100 µM | 40.4 µM and > 100 µM | – | 28 µM and 14.6 µM | > 100 | 40.4 µM and > 100 µM | 40.4 µM and 50.3 µM | 40.4 | – | 0.324 | 0.214 | 0.0513 | 0.58 | 0.805 | – | – | –
9 | C[C@]12CC[C@H]3[C@@H](CC[C@]4(O)C[C@@H](O)CC[C@]34/C=N/O)[C@@]1(O)CC[C@@H]2C1=COC(=O)C1 | 4.44 | 0.998 µM | 0.331 µM | 2.51 | – | 2.06 | – | – | 0.0476 | 0.623 | – | – | – | – | – | – | – | –
10 | O=C(c1ccccc1)c1cccc(C(=O)c2ccccc2)c1 | > 100 | – | > 100 µM | > 100 | > 100 µM | > 100 | > 100 µM | > 100 µM | > 100 | – | – | – | – | – | – | – | – | –
11 | Cc1ccc(N2C(=O)C3C=CC(n4[nH]c(=O)n(Cc5ccccc5)c4=O)CC3C2=O)cc1 (stereo unspecified) | > 100 | > 100 µM | > 100 µM | > 100 | > 100 µM | > 100 | > 100 µM | > 100 µM | > 100 | – | – | – | – | – | – | – | – | –
12 | CC(=O)C1C(=O)C(=O)N(c2ccccc2C(C)C)C1=O (stereo unspecified) | > 100 | > 100 µM | > 100 µM | > 100 | > 100 µM | > 100 | > 100 µM | > 100 µM | > 100 | – | – | – | – | – | – | – | – | –
13 | C[Si](C)(C)c1ccc(-c2sc(-c3ccc([Si](C)(C)C)s3)c3c2C[Si]2(C3)Cc3c(-c4ccc([Si](C)(C)C)s4)sc(-c4ccc([Si](C)(C)C)s4)c3C2)s1 | > 100 | > 100 µM | > 100 µM | > 100 | > 100 µM | > 100 | > 100 µM | > 100 µM | > 100 | – | – | – | – | – | – | – | – | –
14 | O=CC1CCCc2ccccc21 (stereo unspecified) | > 100 | > 100 µM | > 31.6 µM | > 100 | > 100 µM | > 100 | > 100 µM | > 100 µM | > 100 | – | – | – | – | – | – | – | – | –
15 | CC1(C)C2C=CC1(C)C1(CC2)OCCO1 (stereo unspecified) | > 100 | > 100 µM | > 100 µM | > 100 | > 100 µM | > 100 | > 100 µM | > 100 µM | – | > 100 | – | – | – | – | – | – | – | –
16 | CCOC(=O)NC(=O)c1cn(CCCCCCOC(=O)NCCCCCCNC(=O)OCCCCCCn2cc(C(=O)NC(=O)OCC)c(=O)[nH]c2=O)c(=O)[nH]c1=O | > 100 | – | > 100 µM | > 100 | > 100 µM | > 100 | > 100 µM | > 100 µM | > 100 | – | – | – | – | – | – | – | – | –
17 | COC(=O)c1cc(Cl)ccc1NC(=O)c1ccc([N+](=O)[O-])cc1 | 20.7 | > 100 µM | – | 51.7 | > 100 µM | > 100 | 38.8 µM | 38.7 µM | 53.1 | – | – | – | – | – | – | – | – | –
18 | COc1cc(C(=O)NC2CCN(C)CC2)c(F)cc1Nc1ncc2c(n1)N(C1CCCC1)CC(F)(F)C(=O)N2C | – | 14.3 µM | 12.1 µM | 14 | 2.53 µM | 16.2 | 13.2 µM | 10.5 µM | 3.71 | – | < 0.0191 | < 0.025 | < 0.01 | < 0.0141 | – | < 0.0243 | 0.0171 | < 0.0209
19 | O=CN/C=C/c1ccc(O)c(O)c1 | > 100 | > 100 µM | > 100 µM | > 100 | > 100 µM | > 100 | > 100 µM | > 100 µM | > 100 | – | – | – | – | – | – | – | – | –
20 | C[C@]12CCC3[C@@H](CC[C@@H]4c5nonc5CC[C@]34C)C1C/C(=N/O)C2=O (stereo partly specified) | 2.98 | > 100 µM | > 100 µM | > 100 | > 100 µM | > 100 | > 100 µM | > 100 µM | > 100 | – | – | – | – | – | – | – | – | –
21 | CN(/N=C/c1cccc2cccnc12)c1ccccc1 | > 100 | > 100 µM | > 100 µM | > 100 | > 100 µM | > 100 | > 100 µM | > 100 µM | > 100 | – | – | – | – | – | – | – | – | –
22 | COC(=O)C1=CC2C(=O)OC1CC2C#N (stereo unspecified) | > 100 | – | > 100 µM | > 100 | > 100 µM | > 100 | > 100 µM | > 100 µM | > 100 | – | – | – | – | – | – | – | – | –
23 | CC1=C2C(=CC(C)(C)C2O)C(=O)C(C)(O)C12CC2 (stereo unspecified) | 0.0377 | 0.0433 µM | 0.0667 µM | 0.109 | 0.0245 µM | 0.0865 | 0.0447 µM | 0.0291 µM | 0.0315 | – | – | – | – | – | – | – | – | –
